In general, IC50 refers to the concentration that gives 50% inhibition.

Our source for the IC50 values is patent US20230144399A1, “QUINOLINE COMPOUNDS FOR THE TREATMENT AND PROPHYLAXIS OF HEPATITIS B VIRUS DISEASE” (Hoffmann-La Roche Inc., priority 2017, published 2023).

The subject of experiment [1] is HBV cccDNA (HBeAg level) in HepDES19 cells. Briefly: Engineered HepDES19 primary screen assay (HBeAg as surrogate marker for cccDNA). The note with it: Hepatitis B virus, HepDES19, 120 h, read-out: IC50 (HBeAg level, HepDES19 primary screen assay). The format is cell-based. The text has this: The assay was employed to screen for novel cccDNA inhibitors. HepDES19 is a cccDNA-producing cell line. In this cell line, HBeAg in the cell culture supernatant as surrogate marker, as HBeAg production depends on cccDNA level and activity. HepDES19 is an engineered cell line which contains a 1.1 unit length HBV genome, and pgRNA transcription from the transgene is controlled by Tetracycline (Tet). In the absence of Tet, pgRNA transcription will be induced, but HBV e antigen (HBeAg) could not be produced from this pgRNA due to very short leader sequence before the HBeAg start codon and the start codon is disrupted. Only after cccDNA is formed, the missing leader sequence and start codon mutation would be restored from the 3′-terminal redundancy of pgRNA, and then HBeAg could be synthesized. Therefore, HBeAg could be used as a surrogate marker for cccDNA (Zhou, T. et al., Antiviral Res.(2006), 72(2), 116-124; Guo, H. et al., J. Virol. (2007), 81(22), 12472-12484).
HepDES19 cells were seeded at 2×10^6 cells per T150 flask and cultured with the culture medium (Dulbecco's Modified Eagle Medium: Nutrient Mixture F-12 [DMEM-F12, Gibco Cat. 11320-82], 10% Fetal Bovine Serum [FBS, Clontech Cat. 631101], 0.1 mM Non-Essential Amino Acids Solution [NEAA, Gibco Cat. 11140-050], 50 μg/mL Penicillin-Streptomycin [PS, Invitrogen Cat. 15140-163], 500 μg/mL Geneticin [G418, Invitrogen Cat. 10131-027]) containing 3 μg/mL Tet (Sigma, Cat. 87128) for 5 days. Cells were then seeded at 4×10^6 cells per T150 in the same culture medium as described above in the absence of Tet for 8 days. Cells were then harvested and frozen at density of 2×10^6 cells per mL. For compound testing, the frozen cells were thawed and seeded into 96-well plates at a density of 6×10^4 cells per well. At 24 hrs after seeding, half log serial dilutions of compounds made with Dimethyl sulfoxide (DMSO, Sigma, Cat. D2650) were further diluted with the same culture medium as described above before they were added to the cells to reach desired final compound concentrations and 1% DMSO concentration. Plates were then incubated at 37° C. for another 5 days before measurement of HBeAg level and cell viability. Intracellular HBeAg level were measured with enzyme-linked immunosorbent assay (ELISA) kit (Shanghai Kehua Diagnostic Medical Products Co., Ltd). Cell viability was assessed using Cell Counting Kit-8 (Donjindo, Cat. CK04-20). IC50 values were derived from the dose-response curve using 4 parameter logistic curve fit method.
The compounds of the present invention were tested for their capacity to inhibit extracellular HBeAg level as described herein.

Experiment [2] has as its system HBV (extracellular HBsAg) in HBV-infected PHH. Briefly: Cryopreserved primary human hepatocytes (PHH) HBV infection assay. The note with it: Hepatitis B virus, Hepatocyte, 216 h, 9 days post-compound treatment, extracellular HBsAg by CLIA. The class given is cell-based. The method, then: This assay is used to confirm the anti-HBV effect of the compounds in HBV PHH infection assay. Cryopreserved PHH (BioreclamationIVT, Lot YJM) was thawed at 37° C. and gently transferred into pre-warmed InVitroGRO HT medium (BioreclamationIVT, Cat. S03317). The mixture was centrifuged at 70 relative centrifugal force (RCF) for 3 minutes at RT, and the supernatant was discarded. Pre-warmed InVitroGRO CP medium (BioreclamationIVT, Cat #S03316) was added to the cell pellet to gently re-suspend cells. The cells were seeded at the density of 5.8×10^4 cells per well to collagen I coated 96-well plate (Gibco, Cat. A1142803) with the InVitroGRO CP medium. All plates were incubated at 37° C. with 5% CO2 and 85% humidity.
At 20 hours after plating, the medium was changed to PHH culture medium (Dulbecco's Modified Eagle Medium (DMEM)/F12 (1:1) (Gibco, Cat. 11320-033), 10% fetal bovine serum (Gibco Cat. 10099141), 100 U/mL penicillin, 100 μg/mL streptomycin (Gibco, Cat. 151401-122), 5 ng/mL human epidermal growth factor (Invitrogen Cat. PHG0311L), 20 ng/mL dexamethasone (Sigma, Cat. D4902) and 250 ng/mL human recombinant insulin (Gibco, Cat. 12585-014)). And the cells were incubated at 37° C. with 5% CO2 and 85% humidity for 4 hours. The medium was then changed to pre-warmed PHH culture medium containing 4% polyethylene glycol (PEG) MW8000 (Sigma, Cat. P1458-50ML) and 1% DMSO (Sigma, Cat. D2650). 5.8×10^6 genomic equivalents of HBV were added into the medium.
At 24 hours post-infection, the cells were gently washed with PBS and refreshed with PHH culture medium supplemented with 1% DMSO, and 0.25 mg/mL Matrix gel (Corning, Cat. 356237) at 200 μL per well. All plates were immediately placed in at 37° C. CO2 incubator. 24 hours later, serial dilutions of compounds made with DMSO were further diluted with the same culture medium (PHH culture medium supplemented with 1% DMSO and 0.25 mg/mL Matrix gel as described above) before they were added to the cells to reach desired final compound concentrations and 1% DMSO concentration. The medium containing the compounds were refreshed every three days.
At 9 days post-compound treatment, extracellular HBsAg level were measured with Chemiluminescence Immuno Assay (CLIA) kit (Autobio, HBsAg Quantitative CLIA). Extracellular HBV DNA was extracted by MagNA Pure 96 system (Roche) and then determined by quantitative PCR with the following primers and probe: […]
HBsAg IC50 and HBV DNA IC50 values were derived from the dose-response curve using 4 parameter logistic curve fit method.

On to `O=C(O)[C@H]1C[C@@H](OCCOc2ccc(-c3ccc4cccc(Cl)c4n3)cc2)C1` [Example 1, Cis-3-[2-[4-(8-chloro-2-quinolyl)phenoxy]ethoxy]cyclobutanecarboxylic acid], for which the results for the IC50 in experiment [1] and in experiment [2] were 8 nM and 0.015 µM, respectively.

For the compound `COC(=O)[C@H]1C[C@@H](OCCOc2ccc(-c3ccc4ccc(C(F)(F)F)cc4n3)cc2)C1` [Example 9, Cis-methyl 3-[2-[4-[7-(trifluoromethyl)-2-quinolyl]phenoxy]ethoxy]cyclobutanecarboxylate], the IC50 in experiment [1] is 17800 nM. On to `O=C(O)C1CC(OCCOc2ccc(-c3cc(C(F)(F)F)c4cccc(Cl)c4n3)cc2)C1` (stereo not shown) [Example 12, 3-[2-[4-[8-chloro-4-(trifluoromethyl)-2-quinolyl]phenoxy]ethoxy]cyclobutanecarboxylic acid], for which the IC50 was 515 nM in experiment [1] and 3.31 µM in experiment [2]. In the same order, the values of `Cc1cc(-c2cccc(Br)c2)nc2cc(C(F)(F)F)ccc12` [Example 11, 2-(3-bromophenyl)-4-methyl-7-(trifluoromethyl)quinoline] are 2070 nM and 1.66 µM. Turning to `OCCOc1ccc(-c2ccc3cccc(Cl)c3n2)cc1C(F)(F)F` [Example 4, 2-[4-(8-chloro-2-quinolyl)-2-(trifluoromethyl)phenoxy]ethanol], the IC50 in experiment [1] worked out at 2120 nM; in experiment [2], 6.77 µM. In the same order, the values of `O=C(O)[C@H]1C[C@@H](OCCOc2ccc(-c3ccc4cccc(Cl)c4n3)cc2C(F)(F)F)C1` [Example 5, Cis-3-[2-[4-(8-chloro-2-quinolyl)-2-(trifluoromethyl)phenoxy]ethoxy]cyclobutanecarboxylic acid] are 3910 nM and 2.95 µM. As for `COc1cc2cccc(Cl)c2nc1-c1ccc(OCCO[C@H]2C[C@@H](C(=O)O)C2)cc1` [Example 15, Cis-3-[2-[4-(8-chloro-3-methoxy-2-quinolyl)phenoxy]ethoxy]cyclobutanecarboxylic acid], in experiment [1], the IC50 was 2530 nM.

`O=C(O)COCCOc1ccc(-c2ccc3cccc(Cl)c3n2)cc1` [Example 2, 2-[2-[4-(8-chloro-2-quinolyl)phenoxy]ethoxy]acetic acid]: the half-inhibitory concentration (IC50) was found to be 233 nM in experiment [1] and 0.97 µM in experiment [2].

`O=C(O)COCCOc1ccc(-c2ccc3cccc(Cl)c3n2)cc1C(F)(F)F` [Example 6, 2-[2-[4-(8-chloro-2-quinolyl)-2-(trifluoromethyl)phenoxy]ethoxy]acetic acid]: the half-maximal inhibitory concentration (IC50) in experiment [1] worked out at 537 nM; in experiment [2], 8.35 µM.

Take `O=C(O)c1cc(-c2cccc(Br)c2)nc2cc(C(F)(F)F)ccc12` [Example 10, 2-(3-bromophenyl)-7-(trifluoromethyl)quinoline-4-carboxylic acid]: in experiment [1], the half-maximal inhibitory concentration (IC50) worked out at 19500 nM.

With `COc1ccc(-c2ccc3cccc(Cl)c3n2)cc1C(F)(F)F` [Example 3, 8-chloro-2-[4-methoxy-3-(trifluoromethyl)phenyl]quinoline], the IC50 stood at 141 nM in experiment [1] and 11.3 µM in experiment [2]. `OCCOc1ccc(-c2ccc3ccc(C(F)(F)F)cc3n2)cc1` [Example 8, 2-[4-[7-(trifluoromethyl)-2-quinolyl]phenoxy]ethanol]: the IC50 in experiment [1] worked out at 18500 nM.

In the case of `O=C(O)COCCOc1ccc(-c2cc(C(F)(F)F)c3cccc(Cl)c3n2)cc1` [Example 13, 2-[2-[4-[8-chloro-4-(trifluoromethyl)-2-quinolyl]phenoxy]ethoxy]acetic acid], the IC50 was 1670 nM in experiment [1] and 5.5 µM in experiment [2]. Consider `N#Cc1cc(OCCO[C@H]2C[C@@H](C(=O)O)C2)ccc1-c1ccc2cccc(Cl)c2n1` [Example 7, Cis-3-[2-[4-(8-chloro-2-quinolyl)-3-cyano-phenoxy]ethoxy]cyclobutanecarboxylic acid], for which, in experiment [1], the IC50 came out at 18400 nM. The same measure, in the same setting: the same measure for `O=C(O)C1CC(OCCOc2cc3c(Cl)ccc(Cl)c3nc2-c2ccc(O)cc2)C1` (stereo not shown) [Example 16, 3-[2-[[5,8-dichloro-2-(4-hydroxyphenyl)-3-quinolyl]oxy]ethoxy]cyclobutanecarboxlic acid]: 3620 nM. Same read-out and setting: the same measure for `COc1cc(-c2ccc(OCc3cccc(C(=O)O)c3)cc2)nc2c(Cl)cccc12` [Example 14, 3-[[4-(8-chloro-4-methoxy-2-quinolyl)phenoxy]methyl]benzoic acid]: 1860 nM.
